Reference: article PMC7215714

Legend:
SH-SY5Y cells = system: SH-SY5Y cells; parameters: method as in PMID 32295288; conditions: cited from earlier work
[1] = system: caspases 3 and 9 in SH-SY5Y cells; assay: Western blotting of cleaved caspase 3 and 9; format: cell-based, human; conditions: 2000 µM, 6 h, both differentiated and undifferentiated SH-SY5Y cells
Method: Amiodarone 50 μM and MDMA 1000 μM were used as negative controls. After treatment, cells were washed twice with cold PBS buffer (pH 7.4) and incubated with 70 μL of cell lysis buffer (radioimmunoprecipitation assay (RIPA) buffer supplemented with complete protease inhibitor (Roche Diagnostics, Mannheim, Germany)) for 15 min on ice. Then, the cell lysates were collected into Eppendorf tubes and centrifuged at 1600 g for 20 min. […] The protein extracts (18 μg per lane) were loaded, separated by SDS/PAGE using 4–12% NuPAGE Bis-Tris gels (Invitrogen, Basel, Switzerland), and then transferred to nitrocellulose membranes by the Trans-Blot Turbo Blotting System (Bio-Rad, Cressier, Switzerland). […] Protein expression was quantified using the Fusion Pulse TS device (Vilber Lourmat, Oberschwaben, Germany).

C2C12 cells = system: C2C12 cells; parameters: method as in PMID 30925718; conditions: C2C12 mouse skeletal muscle cell line; cited from earlier work
[2] = system: mitochondria obtained from the hippocampus, cortex, and cerebellum of rats; conditions: cited from earlier work
[3] = cited from earlier work

Structure (SMILES): CNC(C)C(=O)c1ccc(Cl)cc1 (stereo not shown) [4-CMC, 4-chloromethcathinone]
- Effect on autophagy (SH-SY5Y cells): stimulates autophagy
- Expression of cleaved caspase 9 [1]: increased the expression of cleaved caspase 9

Structure (SMILES): CCCC(C(=O)c1ccccc1)N1CCCC1 (stereo not drawn) [α-PVP, α-pyrrolidinopentiophenone]
- Electron transport chain complexes with reduced activity (C2C12 cells): complex I

Structure (SMILES): CNC(C)C(=O)c1ccc(C)cc1 (stereo not shown) [4-MMC, 4-methylmethcathinone]
- Effect on mitochondrial ROS levels and outer mitochondrial membrane [2]: increases mitochondrial ROS levels and damages the outer mitochondrial membrane

Structure (SMILES): CCCC(C(=O)c1ccc2ccccc2c1)N1CCCC1 (stereo not shown) [naphyrone]
- Electron transport chain complexes with reduced activity (C2C12 cells): complex II

Structure (SMILES): CNC(C)Cc1ccc2c(c1)OCO2 (stereo not shown) [MDMA, 3,4-methylenedioxymethamphetamine]
- Electron transport chain complexes with reduced activity (C2C12 cells): reduced the activity of complexes I and III

Structure (SMILES): CC(N)Cc1ccccc1 (stereo not shown) [amphetamine, Amphetamine]
- Plasma concentrations reached after a pharmacological dose [3]: low micromolar range
